Values quoted from earlier work, collected in US7074826B2, “R-NSAID esters and their use” (Encore Pharmaceuticals, Inc., priority 2002, dated 2006).

Key:
Alzheimer's dementia = details: limited clinical trial

Compound: CC(C)Cc1ccc(C(C)C(=O)O)cc1 (racemic) [racemic ibuprofen, ibuprofen]
- adverse effects of high doses (cystic fibrosis patients; high doses employed in the Konstan study): conjunctivitis and epistaxis
- progression of the lung disease (cystic fibrosis patients; high doses, cystic fibrosis patients, four-year period): slows progression of the lung disease

Compound: O=c1[nH]cc(F)c(=O)[nH]1 [5-fluorouracil]
- survival among colon cancer patients (colon cancer patients; administered alone): No improvement in survival

Compound: COc1ccc2c(c1)c(CC(=O)O)c(C)n2C(=O)c1ccc(Cl)cc1 [indomethacin]
- progression of Alzheimer's dementia (Alzheimer's dementia): retardation in the progression of Alzheimer's dementia

Compound: c1ccc([C@H]2CN3CCSC3=N2)cc1 [levamisole]
- survival rate among colon cancer patients (colon cancer patients; added to 5-fluorouracil): improved survival rate
